system: Key Broadleaf Weed and Crop Species; assay: Post-Emergent Test II (Table 5); type: in vivo; details: Abutilon theophrasti, post-emergence, 336 h, ABUTH: velvetleaf (Abutilon theophrasti), application rate 70 (kg ai/ha; footnote: g ai/ha), read-out: Visual Growth Reduction (%) 14 Days After Application ABUTH
Summary of the method: (§1)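 Visual injury ratings (0 = no injury, 100 = complete kill) were taken 14 days after treatment relative to untreated plants. Seedlings at the first or second true leaf stage received an overhead spray at 187 L/ha, and solvent-blank sprayed plants served as controls.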

SMILES	pest or weed control at 70 g/ha
COC(=O)c1nc(-c2ccc(Br)nc2)c(F)c(N)c1Cl [Compound 22, methyl 4-amino-6′-bromo-5-chloro-3-fluoro-[2,3′-bipyridine]-6-carboxylate]	95 to 100%

same assay, conditions: Abutilon theophrasti, post-emergence, 336 h, ABUTH: velvetleaf (Abutilon theophrasti), application rate 140 (kg ai/ha; footnote: g ai/ha), read-out: Visual Growth Reduction (%) 14 Days After Application ABUTH

SMILES	pest or weed control at 140 g/ha
COC(=O)c1nc(-c2ccc(Br)nc2)c(F)c(N)c1Cl [Compound 22, methyl 4-amino-6′-bromo-5-chloro-3-fluoro-[2,3′-bipyridine]-6-carboxylate]	95 to 100%

same assay, conditions: Amaranthus retroflexus, post-emergence, 336 h, AMARE: redroot pigweed (Amaranthus retroflexus), application rate 70 (kg ai/ha; footnote: g ai/ha), read-out: Visual Growth Reduction (%) 14 Days After Application AMARE

SMILES	pest or weed control at 70 g/ha
COC(=O)c1nc(-c2ccc(Br)nc2)c(F)c(N)c1Cl [Compound 22, methyl 4-amino-6′-bromo-5-chloro-3-fluoro-[2,3′-bipyridine]-6-carboxylate]	95 to 100%

same assay, conditions: Amaranthus retroflexus, post-emergence, 336 h, AMARE: redroot pigweed (Amaranthus retroflexus), application rate 140 (kg ai/ha; footnote: g ai/ha), read-out: Visual Growth Reduction (%) 14 Days After Application AMARE

SMILES	pest or weed control at 140 g/ha
COC(=O)c1nc(-c2ccc(Br)nc2)c(F)c(N)c1Cl [Compound 22, methyl 4-amino-6′-bromo-5-chloro-3-fluoro-[2,3′-bipyridine]-6-carboxylate]	95 to 100%

same assay, conditions: Brassica napus, post-emergence, 336 h, BRSSS: oilseed rape, canola (Brassica napus), application rate 70 (kg ai/ha; footnote: g ai/ha), read-out: Visual Growth Reduction (%) 14 Days After Application BRSSS

SMILES	pest or weed control at 70 g/ha
COC(=O)c1nc(-c2ccc(Br)nc2)c(F)c(N)c1Cl [Compound 22, methyl 4-amino-6′-bromo-5-chloro-3-fluoro-[2,3′-bipyridine]-6-carboxylate]	95 to 100%

same assay, conditions: Brassica napus, post-emergence, 336 h, BRSSS: oilseed rape, canola (Brassica napus), application rate 140 (kg ai/ha; footnote: g ai/ha), read-out: Visual Growth Reduction (%) 14 Days After Application BRSSS

SMILES	pest or weed control at 140 g/ha
COC(=O)c1nc(-c2ccc(Br)nc2)c(F)c(N)c1Cl [Compound 22, methyl 4-amino-6′-bromo-5-chloro-3-fluoro-[2,3′-bipyridine]-6-carboxylate]	95 to 100%

same assay, conditions: Chenopodium album, post-emergence, 336 h, CHEAL: lambsquarters (Chenopodium album), application rate 70 (kg ai/ha; footnote: g ai/ha), read-out: Visual Growth Reduction (%) 14 Days After Application CHEAL

SMILES	pest or weed control at 70 g/ha
COC(=O)c1nc(-c2ccc(Br)nc2)c(F)c(N)c1Cl [Compound 22, methyl 4-amino-6′-bromo-5-chloro-3-fluoro-[2,3′-bipyridine]-6-carboxylate]	95 to 100%

same assay, conditions: Chenopodium album, post-emergence, 336 h, CHEAL: lambsquarters (Chenopodium album), application rate 140 (kg ai/ha; footnote: g ai/ha), read-out: Visual Growth Reduction (%) 14 Days After Application CHEAL

SMILES	pest or weed control at 140 g/ha
COC(=O)c1nc(-c2ccc(Br)nc2)c(F)c(N)c1Cl [Compound 22, methyl 4-amino-6′-bromo-5-chloro-3-fluoro-[2,3′-bipyridine]-6-carboxylate]	95 to 100%

same assay, conditions: Euphorbia heterophylla, post-emergence, 336 h, EPHHL: wild poinsettia (Euphorbia heterophylla), application rate 70 (kg ai/ha; footnote: g ai/ha), read-out: Visual Growth Reduction (%) 14 Days After Application EPHHL

SMILES	pest or weed control at 70 g/ha
COC(=O)c1nc(-c2ccc(Br)nc2)c(F)c(N)c1Cl [Compound 22, methyl 4-amino-6′-bromo-5-chloro-3-fluoro-[2,3′-bipyridine]-6-carboxylate]	95 to 100%

same assay, conditions: Euphorbia heterophylla, post-emergence, 336 h, EPHHL: wild poinsettia (Euphorbia heterophylla), application rate 140 (kg ai/ha; footnote: g ai/ha), read-out: Visual Growth Reduction (%) 14 Days After Application EPHHL

SMILES	pest or weed control at 140 g/ha
COC(=O)c1nc(-c2ccc(Br)nc2)c(F)c(N)c1Cl [Compound 22, methyl 4-amino-6′-bromo-5-chloro-3-fluoro-[2,3′-bipyridine]-6-carboxylate]	95 to 100%

same assay, conditions: Helianthus annuus, post-emergence, 336 h, HELAN: sunflower (Helianthus annuus), application rate 70 (kg ai/ha; footnote: g ai/ha), read-out: Visual Growth Reduction (%) 14 Days After Application HELAN

SMILES	pest or weed control at 70 g/ha
COC(=O)c1nc(-c2ccc(Br)nc2)c(F)c(N)c1Cl [Compound 22, methyl 4-amino-6′-bromo-5-chloro-3-fluoro-[2,3′-bipyridine]-6-carboxylate]	85 to 94%

same assay, conditions: Helianthus annuus, post-emergence, 336 h, HELAN: sunflower (Helianthus annuus), application rate 140 (kg ai/ha; footnote: g ai/ha), read-out: Visual Growth Reduction (%) 14 Days After Application HELAN

SMILES	pest or weed control at 140 g/ha
COC(=O)c1nc(-c2ccc(Br)nc2)c(F)c(N)c1Cl [Compound 22, methyl 4-amino-6′-bromo-5-chloro-3-fluoro-[2,3′-bipyridine]-6-carboxylate]	95 to 100%

same assay, conditions: Viola tricolor, post-emergence, 336 h, VIOTR: wild pansy (Viola tricolor), application rate 70 (kg ai/ha; footnote: g ai/ha), read-out: Visual Growth Reduction (%) 14 Days After Application VIOTR

SMILES	pest or weed control at 70 g/ha
COC(=O)c1nc(-c2ccc(Br)nc2)c(F)c(N)c1Cl [Compound 22, methyl 4-amino-6′-bromo-5-chloro-3-fluoro-[2,3′-bipyridine]-6-carboxylate]	95 to 100%

same assay, conditions: Viola tricolor, post-emergence, 336 h, VIOTR: wild pansy (Viola tricolor), application rate 140 (kg ai/ha; footnote: g ai/ha), read-out: Visual Growth Reduction (%) 14 Days After Application VIOTR

SMILES	pest or weed control at 140 g/ha
COC(=O)c1nc(-c2ccc(Br)nc2)c(F)c(N)c1Cl [Compound 22, methyl 4-amino-6′-bromo-5-chloro-3-fluoro-[2,3′-bipyridine]-6-carboxylate]	95 to 100%

system: Key Grass and Sedge Weeds as well as Grass Crops; assay: Post-Emergent Test II (Table 6); type: in vivo; details: post-emergence, 336 h, CYPSS, 70 g ai/ha, 14 days after application, read-out: Visual Growth Reduction (%) 14 Days After Application CYPSS
Summary of the method: as §1

SMILES	pest or weed control at 70 g/ha
COC(=O)c1nc(-c2ccc(Br)nc2)c(F)c(N)c1Cl [Compound 22, methyl 4-amino-6′-bromo-5-chloro-3-fluoro-[2,3′-bipyridine]-6-carboxylate]	95 to 100%
